In ChEMBL document CHEMBL3526037, “Evaluation of the relationship between sex, polymorphisms in CYP2C8 and CYP2C9, and pharmacokinetics of angiotensin receptor blockers” (Drug Metab Dispos, 2013):

Legend:
[1] = Half life in human plasma expressing CYP2C8*1/*1 polymorphism at 50 mg by LC/MS/MS analysis
[2] = AUC in human plasma expressing CYP2C8*1/*1 polymorphism at 50 mg by LC/MS/MS analysis; format: ADME, organism-based
[3] = Clearance in human plasma expressing CYP2C8*1/*1 polymorphism at 50 mg by LC/MS/MS analysis; format: ADME, organism-based
[4] = Tmax in human plasma expressing CYP2C9*2 allele carrier polymorphism at 50 mg by LC/MS/MS analysis; format: ADME, organism-based
[5] = Half life in human plasma expressing CYP2C9*1/*1 polymorphism at 50 mg by LC/MS/MS analysis
[6] = AUC in human plasma expressing CYP2C8*4 allele carrier polymorphism at 50 mg by LC/MS/MS analysis; format: ADME, organism-based
[7] = Half life in men plasma at 50 mg by LC/MS/MS analysis; details: male, human
[8] = Clearance in men plasma at 50 mg by LC/MS/MS analysis; format: ADME, organism-based; details: male, human
[9] = Clearance in human plasma expressing CYP2C9*3 allele carrier polymorphism at 50 mg by LC/MS/MS analysis; format: ADME, organism-based
[10] = Clearance in women plasma at 50 mg by LC/MS/MS analysis; format: ADME, organism-based; details: female, human
[11] = Cmax in human plasma expressing CYP2C8*3 allele carrier polymorphism at 50 mg by LC/MS/MS analysis; format: ADME, organism-based; parameters: dose 50 mg
[12] = Tmax in human plasma expressing CYP2C8*1/*1 polymorphism at 50 mg by LC/MS/MS analysis; format: ADME, organism-based
[13] = Half life in human plasma expressing CYP2C9*3 allele carrier polymorphism at 50 mg by LC/MS/MS analysis
[14] = AUC in human plasma expressing CYP2C9*2 allele carrier polymorphism at 50 mg by LC/MS/MS analysis; format: ADME, organism-based
[15] = Cmax in men plasma at 50 mg by LC/MS/MS analysis; format: ADME, organism-based; parameters: dose 50 mg; details: male, human
[16] = Cmax in human plasma expressing CYP2C9*1/*1 polymorphism at 50 mg by LC/MS/MS analysis; format: ADME, organism-based; parameters: dose 50 mg
[17] = Tmax in women plasma at 50 mg by LC/MS/MS analysis; format: ADME, organism-based; details: female, human
[18] = Clearance in human plasma expressing CYP2C8*3 allele carrier polymorphism at 50 mg by LC/MS/MS analysis; format: ADME, organism-based
[19] = Half life in human plasma expressing CYP2C8*3 allele carrier polymorphism at 50 mg by LC/MS/MS analysis
[20] = Half life in human plasma expressing CYP2C9*2 allele carrier polymorphism at 50 mg by LC/MS/MS analysis
[21] = Tmax in human plasma expressing CYP2C9*3 allele carrier polymorphism at 50 mg by LC/MS/MS analysis; format: ADME, organism-based
[22] = Half life in women plasma at 50 mg by LC/MS/MS analysis; details: female, human
[23] = Tmax in human plasma expressing CYP2C8*4 allele carrier polymorphism at 50 mg by LC/MS/MS analysis; format: ADME, organism-based
[24] = Cmax in human plasma expressing CYP2C8*4 allele carrier polymorphism at 50 mg by LC/MS/MS analysis; format: ADME, organism-based; parameters: dose 50 mg
[25] = AUC in men plasma at 50 mg by LC/MS/MS analysis; format: ADME, organism-based; details: male, human
[26] = AUC in human plasma expressing CYP2C9*3 allele carrier polymorphism at 50 mg by LC/MS/MS analysis; format: ADME, organism-based
[27] = AUC in human plasma expressing CYP2C9*1/*1 polymorphism at 50 mg by LC/MS/MS analysis; format: ADME, organism-based
[28] = Cmax in human plasma expressing CYP2C8*1/*1 polymorphism at 50 mg by LC/MS/MS analysis; format: ADME, organism-based; parameters: dose 50 mg
[29] = Tmax in men plasma at 50 mg by LC/MS/MS analysis; format: ADME, organism-based; details: male, human
[30] = Clearance in human plasma expressing CYP2C8*4 allele carrier polymorphism at 50 mg by LC/MS/MS analysis; format: ADME, organism-based
[31] = AUC in women plasma at 50 mg by LC/MS/MS analysis; format: ADME, organism-based; details: female, human
[32] = Half life in human plasma expressing CYP2C8*4 allele carrier polymorphism at 50 mg by LC/MS/MS analysis
[33] = AUC in human plasma expressing CYP2C8*3 allele carrier polymorphism at 50 mg by LC/MS/MS analysis; format: ADME, organism-based
[34] = Tmax in human plasma expressing CYP2C8*3 allele carrier polymorphism at 50 mg by LC/MS/MS analysis; format: ADME, organism-based
[35] = Tmax in human plasma expressing CYP2C9*1/*1 polymorphism at 50 mg by LC/MS/MS analysis; format: ADME, organism-based
[36] = Clearance in human plasma expressing CYP2C9*1/*1 polymorphism at 50 mg by LC/MS/MS analysis; format: ADME, organism-based
[37] = Clearance in human plasma expressing CYP2C9*2 allele carrier polymorphism at 50 mg by LC/MS/MS analysis; format: ADME, organism-based

Question: Which results are given for `CCCCc1nc(Cl)c(CO)n1Cc1ccc(-c2ccccc2-c2nn[nH]n2)cc1` [LOSARTAN]?
Answer: half-life [1]: 2.3 h; AUC [2]: 504 ng·h/mL; clearance [3]: 28.3 mL/min/kg; Tmax [4]: 1.1 h; half-life [5]: 2.3 h; AUC [6]: 494 ng·h/mL; half-life [7]: 2.5 h; clearance [8]: 27.7 mL/min/kg; clearance [9]: 21.7 mL/min/kg; clearance [10]: 30.3 mL/min/kg; Cmax [11]: 231 ng/mL; Tmax [12]: 1.3 h; half-life [13]: 3.1 h; AUC [14]: 366 ng·h/mL; Cmax [15]: 234 ng/mL; Cmax [16]: 258 ng/mL; Tmax [17]: 1.2 h; clearance [18]: 31.7 mL/min/kg; half-life [19]: 2.5 h; half-life [20]: 2.4 h; Tmax [21]: 1 h; half-life [22]: 2.4 h; Tmax [23]: 0.9 h; Cmax [24]: 345 ng/mL; AUC [25]: 455 ng·h/mL; AUC [26]: 637 ng·h/mL; AUC [27]: 473 ng·h/mL; Cmax [28]: 263 ng/mL; Tmax [29]: 1.2 h; clearance [30]: 26.7 mL/min/kg; AUC [31]: 519 ng·h/mL; half-life [32]: 2.7 h; AUC [33]: 413 ng·h/mL; Tmax [34]: 1 h; Tmax [35]: 1.3 h; clearance [36]: 30 mL/min/kg; clearance [37]: 31.7 mL/min/kg
